Numbered stars: 1 amine (or outer) side, 2 acyl side, 3 side chain; on linkers, the order of the positions; unused ones are H or OH. Bridge positions count the residues as written; N and C are the ends. Square brackets hold non-standard residues; d marks the D form. Peptide text beside a SMILES is read from it. Arg(Me2a) = CN(C)C(=N)NCCC[C@H](N)C(=O)O; Arg(Me2s) = CN=C(NC)NCCC[C@H](N)C(=O)O; TBMB = c1c(C[*:1])cc(C[*:3])cc1C[*:2]
What was measured:
[1] = biological target: human plasma kallikrein (hPK) (Homo sapiens, UniProt P03952); experiment: Enzyme inhibition assay, human plasma kallikrein
[2] = Rapid plasma stability profiling, method 1 (MALDI-TOF), rat plasma; format: in vitro ADME; conditions: 35% rat plasma, 37 deg C, method 1, qualitative; listed as N-methylation of Arg5
Procedure: A rapid plasma stability profiling assay was developed that employed mass spectrometric detection (MALDI-TOF, Voyager DE, Applied Biosystems) of the parent mass, until the time when the parent peptide mass was no longer observable. Specifically, 200 uM of peptide was incubated in the presence of 35% rat or human plasma (Sera labs, using citrate as anticoagulant) at 37 deg C, which was supplemented with 1×PBS (derived from a 10×PBS Stock, Sigma). At various time points (i.e. t=0, 3, 24 hrs, henceafter daily up to 10 days), 2 uL of sample was added to 18 uL of 30 mM ammonium bicarbonate in a 1:1 mixture of acetonitrile:H2O. Samples were frozen at −80 deg C until the time of analysis. For mass spectrometric analysis that determines the approximate detection window of the peptide, the acetonitrile:H2O-diluted sample of a given time point was spotted directly (0.7 uL) onto the MALDI plate. Matrix (alpha-cyanocinnamic acid, Sigma, prepared as a saturated solution in 1:1 acetonitrile:water containing 0.1% trifluoroacetic acid) was layered over the sample (1 uL). At a similar laser intensity setting on the MALDI TOF, the time could then be determined until parent peptide was no longer detectable. It should be noted that this is a qualitative assay serves to detect relative changes in plasma stability.

[3] = biological target: rat plasma kallikrein (rPK) (Rattus norvegicus, UniProt P14272); experiment: Enzyme inhibition assay, rat plasma kallikrein
[4] = Quantitative plasma stability, method 3 (LC/MS), rat plasma; format: in vitro ADME; conditions: determined quantitatively by LC/MS, read-out: rat plasma halflife (converted)
Procedure: To obtain plasma stability quantitatively, peptide stock solutions (1 mM in DMSO) were shipped to Biofocus, UK, who performed the analysis. Peptides were diluted to 100 uM with water, and diluted 1:20 in plasma (5 uM final concentration, with the plasma at 95%), sampled as appropriate, precipitated as above, and quantified using a Waters Xevo TQ-MS.

Human factor XIa (hfXIa) [5] = biological target: T1, Human factor XIa (hfXIa) (Homo sapiens, UniProt P03951); conditions: highest concentration tested (10 μM), Heinis et al. 2009; cited from earlier work
[6] = biological target: monkey plasma kallikrein (mPK) (Macaca mulatta, UniProt A0A1D5Q7U7); experiment: Inhibition of monkey plasma kallikrein
Human thrombin = Human thrombin (Homo sapiens, UniProt P00734); experiment: Inhibition of paralogous protease thrombin; format: biochemical; conditions: for inhibition of thrombin: highest concentration tested (100 μM)
Procedure: (§1) The target specificity of the isolated bicyclic peptide inhibitors was assessed by determining the inhibition of trypsin-like human serine proteases of the class S1A which comprises 79 members (Yousef, et al, Biochem Biophys Res Commun 2003, 305 (1), 28-36). The panel of proteases included hfXIa which shares the highest sequence identity with hPK (69%) as well as the structurally less related but vital human serine proteases thrombin (36%), plasmin (34% sequence identity with hPK) and factor XIIa (35%).

Human factor XIa (hfXIa) [7] = biological target: T1, Human factor XIa (hfXIa); experiment: Inhibition of paralogous protease factor XIa; format: biochemical; conditions: highest concentration tested (100 μM)
Procedure: as §1

[8] = biological target: T2, Human factor XIIa (hfXIIa) (Homo sapiens, UniProt P00748); experiment: Inhibition of paralogous protease factor XIIa; format: biochemical; conditions: for inhibition of factor XIIa: highest concentration tested (100 μM)
T2 sequence (P00748 373-615 limits assumed): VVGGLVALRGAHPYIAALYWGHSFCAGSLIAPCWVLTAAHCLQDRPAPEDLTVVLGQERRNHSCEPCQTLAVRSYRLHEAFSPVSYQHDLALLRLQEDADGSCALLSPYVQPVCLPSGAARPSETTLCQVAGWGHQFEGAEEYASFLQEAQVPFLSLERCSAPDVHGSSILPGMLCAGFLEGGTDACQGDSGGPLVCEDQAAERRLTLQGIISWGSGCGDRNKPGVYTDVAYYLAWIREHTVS
Procedure: as §1

Human plasmin = Human plasmin (Homo sapiens, UniProt P00747); experiment: Inhibition of paralogous protease plasmin; format: biochemical; conditions: highest concentration tested (100 μM)
Procedure: as §1

[9] = biological target: T3, Human plasma kallikrein (hPK) (human, UniProt P03952 20-638, limits assumed); experiment: enzyme inhibition assay (fluorogenic substrate)
T3 construct: also called human PK; human kallikrein

[10] = biological target: T3, Human plasma kallikrein (hPK); experiment: enzyme inhibition assay (fluorogenic substrate); remark: listed apart in the source

T3 sequence (P03952 20-638 limits assumed): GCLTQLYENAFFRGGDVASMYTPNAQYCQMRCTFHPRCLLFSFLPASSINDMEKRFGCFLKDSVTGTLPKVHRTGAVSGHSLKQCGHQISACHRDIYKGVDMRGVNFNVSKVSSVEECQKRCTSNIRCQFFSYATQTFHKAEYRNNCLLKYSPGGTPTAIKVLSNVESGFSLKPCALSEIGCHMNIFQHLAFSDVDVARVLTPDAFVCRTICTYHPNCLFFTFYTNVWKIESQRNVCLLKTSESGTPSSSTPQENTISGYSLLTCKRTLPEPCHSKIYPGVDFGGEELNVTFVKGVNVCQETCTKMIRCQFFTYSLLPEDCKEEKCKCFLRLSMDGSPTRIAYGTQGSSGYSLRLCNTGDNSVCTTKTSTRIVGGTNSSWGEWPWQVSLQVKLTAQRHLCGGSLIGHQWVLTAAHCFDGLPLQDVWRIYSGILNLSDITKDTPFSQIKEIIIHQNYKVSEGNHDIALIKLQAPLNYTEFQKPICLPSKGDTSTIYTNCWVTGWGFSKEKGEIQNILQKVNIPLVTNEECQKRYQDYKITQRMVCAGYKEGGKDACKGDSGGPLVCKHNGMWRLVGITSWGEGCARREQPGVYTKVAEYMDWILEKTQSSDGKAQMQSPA
T1 sequence (P03951 388-625 limits assumed): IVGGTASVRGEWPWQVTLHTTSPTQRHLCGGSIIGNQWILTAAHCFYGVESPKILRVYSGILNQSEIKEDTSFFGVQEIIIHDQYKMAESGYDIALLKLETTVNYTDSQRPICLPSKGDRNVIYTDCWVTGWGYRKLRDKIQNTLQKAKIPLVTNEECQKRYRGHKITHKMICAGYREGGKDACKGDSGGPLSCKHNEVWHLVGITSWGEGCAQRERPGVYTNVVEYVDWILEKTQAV
T1 sequence (P03951 19-387 partner limits assumed): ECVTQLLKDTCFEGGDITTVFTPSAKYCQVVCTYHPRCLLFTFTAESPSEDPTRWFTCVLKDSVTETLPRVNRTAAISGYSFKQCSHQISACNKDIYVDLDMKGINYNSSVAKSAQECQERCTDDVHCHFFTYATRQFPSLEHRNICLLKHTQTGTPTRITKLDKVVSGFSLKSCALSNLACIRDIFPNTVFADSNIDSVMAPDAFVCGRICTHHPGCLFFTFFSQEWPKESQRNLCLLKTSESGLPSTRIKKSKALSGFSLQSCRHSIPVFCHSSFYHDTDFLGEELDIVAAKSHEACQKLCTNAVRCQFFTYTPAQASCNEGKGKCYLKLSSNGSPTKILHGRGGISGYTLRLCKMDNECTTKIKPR
Sequence of rat plasma kallikrein (rPK) (P14272 391-638 limits assumed): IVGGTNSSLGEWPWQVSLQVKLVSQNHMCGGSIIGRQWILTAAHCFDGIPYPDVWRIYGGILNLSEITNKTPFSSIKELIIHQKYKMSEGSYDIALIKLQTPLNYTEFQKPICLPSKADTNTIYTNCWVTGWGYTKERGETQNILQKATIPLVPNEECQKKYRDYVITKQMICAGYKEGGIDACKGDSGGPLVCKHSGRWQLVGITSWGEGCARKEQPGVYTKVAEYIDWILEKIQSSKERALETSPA
Sequence of monkey plasma kallikrein (mPK) (A0A1D5Q7U7 391-638): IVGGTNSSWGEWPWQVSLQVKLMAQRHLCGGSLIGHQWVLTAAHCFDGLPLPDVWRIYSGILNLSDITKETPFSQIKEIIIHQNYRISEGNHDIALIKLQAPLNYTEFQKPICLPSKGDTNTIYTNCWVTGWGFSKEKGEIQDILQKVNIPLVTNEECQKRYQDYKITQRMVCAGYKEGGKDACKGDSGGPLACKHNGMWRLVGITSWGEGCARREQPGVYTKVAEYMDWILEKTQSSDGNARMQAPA
Sequence of Human plasmin (P00747 581-810 limits assumed): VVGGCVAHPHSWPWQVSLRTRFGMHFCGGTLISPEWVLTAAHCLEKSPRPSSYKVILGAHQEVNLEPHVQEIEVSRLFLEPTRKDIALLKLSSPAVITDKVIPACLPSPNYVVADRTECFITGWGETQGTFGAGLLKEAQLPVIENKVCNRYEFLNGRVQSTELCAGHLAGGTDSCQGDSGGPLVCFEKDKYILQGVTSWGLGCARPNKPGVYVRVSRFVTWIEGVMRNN
Sequence of Human plasmin (P00747 97-580 partner limits assumed): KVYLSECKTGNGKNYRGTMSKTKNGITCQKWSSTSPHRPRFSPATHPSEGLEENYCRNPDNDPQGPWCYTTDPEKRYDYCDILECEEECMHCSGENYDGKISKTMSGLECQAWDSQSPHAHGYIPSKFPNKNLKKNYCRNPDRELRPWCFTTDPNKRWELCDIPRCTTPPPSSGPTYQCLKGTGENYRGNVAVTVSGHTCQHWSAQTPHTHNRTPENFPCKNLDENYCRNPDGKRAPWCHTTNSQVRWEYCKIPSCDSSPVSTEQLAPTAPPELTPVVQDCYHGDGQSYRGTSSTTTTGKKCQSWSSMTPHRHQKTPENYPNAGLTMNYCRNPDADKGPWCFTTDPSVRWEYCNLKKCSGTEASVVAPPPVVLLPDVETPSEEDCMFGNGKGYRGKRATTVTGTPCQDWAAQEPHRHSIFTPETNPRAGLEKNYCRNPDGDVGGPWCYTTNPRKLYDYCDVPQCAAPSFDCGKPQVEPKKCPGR

CC(=O)N[C@H]1CSCc2cc3cc(c2)CSC[C@H](NC(=O)[C@H](CCCNC(=N)N)N(C)C(=O)[C@H](C)NC(=O)[C@@H]2CCCN2C(=O)[C@H](Cc2c[nH]c4ccccc24)NC(=O)[C@H](CO)NC1=O)C(=O)N[C@@H](CC(C)C)C(=O)N[C@@H](Cc1c[nH]cn1)C(=O)N[C@@H](CCC(N)=O)C(=O)N[C@@H](CC(=O)O)C(=O)N[C@@H](CC(C)C)C(=O)N[C@H](C(N)=O)CSC3 [Ac-(06-34-18) NMeArg5]
Ki [1]: 3.5 nM | fold reduction in affinity to kallikrein compared to wildtype peptide ([1]; versus Ac-06-34-18(TMB)-NH2): 20 fold | Observable in rat plasma, for days [2]: exceeds the assay time

CC(=O)N[C@H]1CSCc2cc3cc(c2)CSC[C@H](NC(=O)[C@H](CCCNC(=N)N)NC(=O)[C@H](C)NC(=O)[C@@H]2CCCN2C(=O)[C@H](Cc2c[nH]c4ccccc24)NC(=O)[C@H](CO)NC1=O)C(=O)N[C@@H](CC(C)C)C(=O)N[C@@H](Cc1c[nH]cn1)C(=O)N[C@@H](CCC(N)=O)C(=O)N[C@@H](CC(=O)O)C(=O)N[C@@H](CC(C)C)C(=O)N[C@H](C(N)=O)CSC3 [Ac-(06-34-18) wildtype]
IC50 [3]: 1.7 nM | half-life at 5 uM [4]: ~2 h | Ki [1]: 0.17 nM

CC(C)C[C@@H]1NC(=O)[C@H](C)NC(=O)[C@H](CCC(=O)O)NC(=O)[C@H](CC(=O)O)NC(=O)[C@H](C)NC(=O)[C@@H]2CCCN2C(=O)[C@@H]2CSCc3cc(cc(c3)CSC[C@@H](C(=O)NCC(N)=O)NC1=O)CSC[C@H](NC(=O)[C@H](C)N)C(=O)N[C@@H](CO)C(=O)N[C@@H](CC(=O)O)C(=O)N[C@@H](CCCNC(=N)N)C(=O)N[C@@H](Cc1ccccc1)C(=O)N[C@@H](CCCNC(=N)N)C(=O)N[C@@H](CC(N)=O)C(=O)N2 [PK15] (H-ACSDRFRNCPADEALCG-NH2; linker 2-9-16 via TBMB)
inhibition of factor XIa (hfXIa) (Human factor XIa (hfXIa) [5]): did not inhibit | Ki [6]: 2.9 nM

CC(C)C[C@@H]1NC(=O)[C@H](CC(N)=O)NC(=O)[C@H](CCC(N)=O)NC(=O)[C@H](Cc2c[nH]cn2)NC(=O)[C@H](CC(C)C)NC(=O)[C@@H]2CSCc3cc(cc(c3)CSC[C@@H](C(=O)N[C@@H](C)C(N)=O)NC1=O)CSC[C@H](NC(=O)[C@H](C)N)C(=O)N[C@@H]([C@@H](C)O)C(=O)N[C@@H](Cc1ccc(O)cc1)C(=O)N1CCC[C@H]1C(=O)N[C@@H](Cc1ccc(O)cc1)C(=O)N[C@@H](CCCCN)C(=O)N2 [Peptide 2A10] (H-ACTYPYKCLHQNLCA-NH2; linker 2-8-14 via TBMB)
inhibition of thrombin (Human thrombin): did not inhibit | inhibition of hfXIa (Human factor XIa (hfXIa) [7]): did not inhibit | inhibition of factor XIIa [8]: did not inhibit | Ki [1]: 4.98 nM

C[C@H](N)C(=O)N[C@H]1CSCc2cc3cc(c2)CSC[C@H](NC(=O)[C@H](CCCNC(=N)N)NC(=O)[C@H](C)NC(=O)[C@@H]2CCCN2C(=O)[C@H](Cc2c[nH]c4ccccc24)NC(=O)[C@H](CCCNC(=N)N)NC1=O)C(=O)N[C@@H]([C@@H](C)O)C(=O)N[C@@H](Cc1c[nH]cn1)C(=O)N[C@@H](CCC(N)=O)C(=O)N[C@@H](CC(N)=O)C(=O)N[C@@H](Cc1ccc(O)cc1)C(=O)N[C@H](C(=O)N[C@@H](C)C(N)=O)CSC3 [Peptide 06-54] (H-ACRWPARCTHQNYCA-NH2; linker 2-8-14 via TBMB)
Ki [3]: 7 nM | IC50 (Human thrombin): > 10000 nM | inhibition of thrombin (Human thrombin): did not inhibit | inhibition of hfXIa (Human factor XIa (hfXIa) [7]): did not inhibit | IC50 [8]: > 10000 nM | inhibition of factor XIIa [8]: did not inhibit | Ki [1]: 0.49 nM | inhibition of plasmin (Human plasmin): did not inhibit

CC(C)C[C@@H]1NC(=O)[C@@H]2CSCc3cc(cc(c3)CSC[C@@H](C(=O)N[C@@H](C)C(N)=O)NC(=O)[C@H](Cc3ccc(O)cc3)NC(=O)[C@H](CC(=O)O)NC(=O)[C@H](CCC(N)=O)NC(=O)[C@H](Cc3c[nH]cn3)NC1=O)CSC[C@H](NC(=O)[C@H](C)N)C(=O)N[C@@H](CO)C(=O)N[C@@H](Cc1c[nH]c3ccccc13)C(=O)N1CCC[C@H]1C(=O)N[C@@H](Cc1ccc(O)cc1)C(=O)N[C@@H](CCCNC(=N)N)C(=O)N2 [Peptide 06-61] (H-ACSWPYRCLHQDYCA-NH2; linker 2-8-14 via TBMB)
IC50 (Human thrombin): > 10000 nM | IC50 [8]: > 10000 nM | Ki [1]: 5.8 nM

CC(C)C[C@@H]1NC(=O)[C@@H]2CSCc3cc(cc(c3)CSC[C@@H](C(=O)N[C@@H](C)C(N)=O)NC(=O)[C@H](CC(C)C)NC(=O)[C@H](CC(=O)O)NC(=O)[C@H]([C@@H](C)O)NC(=O)[C@H](Cc3c[nH]cn3)NC1=O)CSC[C@H](NC(=O)[C@H](C)N)C(=O)N[C@@H](CC(N)=O)C(=O)N[C@@H](Cc1c[nH]c3ccccc13)C(=O)N1CCC[C@H]1C(=O)N[C@@H](Cc1ccc(O)cc1)C(=O)N[C@@H](CCCNC(=N)N)C(=O)N2 [Peptide 06-157] (H-ACNWPYRCLHTDLCA-NH2; linker 2-8-14 via TBMB)
IC50 (Human thrombin): > 10000 nM | IC50 [8]: > 10000 nM | Ki [1]: 3.3 nM

B1: Ac-(06-34-18) D-Trp2 (peptide)
peptide: Ac-CS[dW]PARCLHQDLC-NH2
modifications: linker 1-7-13 via TBMB
SMILES: CC(=O)N[C@H]1CSCc2cc3cc(c2)CSC[C@H](NC(=O)[C@H](CCCNC(=N)N)NC(=O)[C@H](C)NC(=O)[C@@H]2CCCN2C(=O)[C@@H](Cc2c[nH]c4ccccc24)NC(=O)[C@H](CO)NC1=O)C(=O)N[C@@H](CC(C)C)C(=O)N[C@@H](Cc1c[nH]cn1)C(=O)N[C@@H](CCC(N)=O)C(=O)N[C@@H](CC(=O)O)C(=O)N[C@@H](CC(C)C)C(=O)N[C@H](C(N)=O)CSC3
fold loss in potency against Ac-06-34-18 wildtype [9]: 45000 fold

B2: Ac-(06-34-18) D-Ala4 (peptide)
peptide: Ac-CSWP[dA]RCLHQDLC-NH2
modifications: linker 1-7-13 via TBMB
SMILES: CC(=O)N[C@H]1CSCc2cc3cc(c2)CSC[C@H](NC(=O)[C@H](CCCNC(=N)N)NC(=O)[C@@H](C)NC(=O)[C@@H]2CCCN2C(=O)[C@H](Cc2c[nH]c4ccccc24)NC(=O)[C@H](CO)NC1=O)C(=O)N[C@@H](CC(C)C)C(=O)N[C@@H](Cc1c[nH]cn1)C(=O)N[C@@H](CCC(N)=O)C(=O)N[C@@H](CC(=O)O)C(=O)N[C@@H](CC(C)C)C(=O)N[C@H](C(N)=O)CSC3
fold reduction of affinity against Ac-06-34-18 wildtype [9]: 7000 fold

B3: Ac-(06-34-18) SDMA5 (peptide)
peptide: Ac-CSWPA[Arg(Me2s)]CLHQDLC-NH2
modifications: linker 1-7-13 via TBMB
SMILES: CN=C(NC)NCCC[C@@H]1NC(=O)[C@H](C)NC(=O)[C@@H]2CCCN2C(=O)[C@H](Cc2c[nH]c3ccccc23)NC(=O)[C@H](CO)NC(=O)[C@@H](NC(C)=O)CSCc2cc3cc(c2)CSC[C@H](NC1=O)C(=O)N[C@@H](CC(C)C)C(=O)N[C@@H](Cc1c[nH]cn1)C(=O)N[C@@H](CCC(N)=O)C(=O)N[C@@H](CC(=O)O)C(=O)N[C@@H](CC(C)C)C(=O)N[C@H](C(N)=O)CSC3
Ki [10]: 1420 nM

B4: Ac-(06-34-18) NDMA5 (peptide)
peptide: Ac-CSWPA[Arg(Me2a)]CLHQDLC-NH2
modifications: linker 1-7-13 via TBMB
SMILES: CC(=O)N[C@H]1CSCc2cc3cc(c2)CSC[C@H](NC(=O)[C@H](CCCNC(=N)N(C)C)NC(=O)[C@H](C)NC(=O)[C@@H]2CCCN2C(=O)[C@H](Cc2c[nH]c4ccccc24)NC(=O)[C@H](CO)NC1=O)C(=O)N[C@@H](CC(C)C)C(=O)N[C@@H](Cc1c[nH]cn1)C(=O)N[C@@H](CCC(N)=O)C(=O)N[C@@H](CC(=O)O)C(=O)N[C@@H](CC(C)C)C(=O)N[C@H](C(N)=O)CSC3
Ki [10]: 510 nM
